Data set [1] concerns Caenorhabditis elegans. The data set can be described thus: Induction of mitochondrial morphology change in Caenorhabditis elegans at 5 uM incubated for 24 hrs. It counts as functional, organism-based.
In data set [2] the test system is Caenorhabditis elegans. Briefly: Activation of unfolded protein response in Caenorhabditis elegans mitochondria at 5 uM. The format is functional, organism-based.
Data set [3] concerns HepG2. Briefly: Cytotoxicity against human HepG2 cells incubated for 3 days by trypan blue assay. It counts as functional, cell-based. The conditions noted are these: HepG2, 72 h.
Data set [4] relates to Caenorhabditis elegans. Briefly: Reduction in oxygen consumption rate in Caenorhabditis elegans at 5 uM incubated for 24 hrs. The format is functional, organism-based.
The test system of data set [5] is Caenorhabditis elegans. Briefly: Inhibition of mitochondrial electron transport chain in Caenorhabditis elegans assessed as increase in life span at 5 uM. The format is functional, organism-based.
The subject of data set [6] is PANC-1. Briefly: Cytotoxicity against human PANC-1 cells incubated for 3 days by trypan blue assay. As to conditions: PANC-1, 72 h. It counts as functional, cell-based.
Data set [7] is described as follows: Toxicity in iv dosed mouse assessed as maximum tolerated dose. The format is organism-based. The conditions noted are these: in vivo.

We go through four molecules from ChEMBL document CHEMBL6127090, “Further Probing the Properties of a Unique Sponge-derived Alkaloid Through the Isolation of a New (-)-(5E)-(8R)-(14Z)-Mycothiazole Analogue” (J Nat Prod, 2024).

Broadly, the IC50 is the concentration at which inhibition is half-maximal. In general, MTD refers to the highest dose tested that stayed within the study's limit of toxicity.

Activity calls are given as the source filed them. The calls are words filed in the database; no cut-off is given here.

Take `C=CC/C=C\Cc1csc(C(C)(C)[C@H](O)C/C=C/C(=C)CCNC(=O)OC)n1`: the outcome in data set [1] and in data set [2] was inactive. Besides, the values for the IC50 in data set [3] and in data set [6] were 115 nM and 112 nM, respectively. In addition, the result in data set [4] and in data set [5] was Active.
In the case of `C=CC/C=C\Cc1csc(C(C)(C)[C@@H](O)C/C=C\C(=C)CCNC(=O)OC)n1`, the result in data set [1] and in data set [2] was inactive. Besides, the outcome in data set [4] and in data set [5] was Active.
Turning to `C=CC/C=C\Cc1csc(C(C)(C)[C@H](O)C/C=C\C(=C)CCNC(=O)OC)n1`, the outcome in data set [1] and in data set [2] was inactive. In addition, the result in data set [4] and in data set [5] was Active.
For `C=CC/C=C\Cc1csc(C(C)(C)[C@H](C/C=C\C(=C)CCNC(=O)OC)OC(C)=O)n1`, the result in data set [1] and in data set [2] was inactive. Also, the outcome in data set [4] and in data set [5] was Active. For the same molecule, in data set [7], the maximum tolerated dose (MTD) is 0.1 mg/kg.
